Patent US20010007907A1, “3-EPI COMPOUNDS OF VITAMIN D3 AND USES THEREOF” (WOMEN AND INFANTS HOSPITAL, priority 1997, published 2001)
Where two headings read alike, the source gives them in different places.

What was measured:
[1] = biological target: T1, plasma vitamin D binding protein (DBP) (Homo sapiens, UniProt P02774); assay: Competitive ligand binding to plasma vitamin D binding protein (RCI); settings: fold over 1α,25(OH)2D3
T1 sequence (P02774 17-474): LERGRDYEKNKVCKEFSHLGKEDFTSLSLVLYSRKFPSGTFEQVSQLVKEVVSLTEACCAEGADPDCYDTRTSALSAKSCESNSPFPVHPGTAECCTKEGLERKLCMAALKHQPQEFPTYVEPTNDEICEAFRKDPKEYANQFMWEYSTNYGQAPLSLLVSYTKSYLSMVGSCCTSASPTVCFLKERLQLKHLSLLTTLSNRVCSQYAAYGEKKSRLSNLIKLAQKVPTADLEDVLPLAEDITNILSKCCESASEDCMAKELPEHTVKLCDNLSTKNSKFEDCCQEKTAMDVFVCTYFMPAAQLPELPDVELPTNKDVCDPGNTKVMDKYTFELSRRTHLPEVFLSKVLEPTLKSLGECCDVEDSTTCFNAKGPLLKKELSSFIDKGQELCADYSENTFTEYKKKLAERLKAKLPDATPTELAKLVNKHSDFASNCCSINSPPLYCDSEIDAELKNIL
Description: The elevated levels of 3-epi binding indicate that 3-epi forms bind to DBP more avidly than their isomeric counterparts. Such enhanced binding may in turn enhance the stability of 3-epi forms in the plasma, and thus may explain the prolonged presence of 3-epi metabolites in vivo.
Ligand binding assays are well known in the art. […] Such plots give linear curves characteristic for each test analog, the slopes of which are equal to the analog's competitive index (Wecksler, W. R. and Norman, A. W. (1980) Methods of Enzymol. 67:494-500).

keratinocytes [2] = assay: Keratinocyte growth inhibition (cell number per well); assay type: cell-based, human; settings: for inhibition of keratinocyte growth: result in words; for potency at inhibiting growth of keratinocytes compared with 1α,25(OH)2-3-epi-D3: data not shown
Protocol: To address the effect of 3-epi vitamin D3 compounds on keratinocyte growth, keratinocyte cultures were established at 25.000 cells/per well on day 0 in KGM. […] The cells were allowed to grow for 4 more days with one refeeding on day 3. Number of cells per well was determined on day 4.

bovine parathyroid cells [3] = assay: Inhibition of PTH secretion in bovine parathyroid cells; assay type: cell-based; settings: result in words
Protocol: To determine the effect of 3-epi vitamin D3 compounds on parathyroid hormone secretion, bovine parathyroid cells were prepared as described in the metabolism studies. These cells were grown for four days in serum-free media. […] Steady state PTH seretion was determined by washing the cells 3 times with Dulbecco's PBS and then placing them in serum free media for 3 hours. The media was collected, centrifuged at 4° C. and analyzed from PTH using CH9 antibody as described previously (Brown A. J. et al. (1992) Endocrinology 130:276-281). The cell monolayers were dissolved in 0.1 N NaOH and assayed for protein by method of Bradford using a kit from Biorad Laboratories. PTH secretion is expressed as picograms PTH per milligram cell protein (FIG. 20, panel B).

human keratinocytes = assay: Metabolism in human keratinocytes (incubation, lipid extraction, HPLC); assay type: in vitro ADME
Protocol: Keratinocytes were prepared as described previously (Kim H. […] First passage keratinocytes were seeded at 0.5×10^6 into […] flasks in keratinocytes growth media (KGM, Clonetics, Inc.). The cells were fed every 2-3 days. The cells were 70-80% confluent usually after 5 days. […] At the end of 24 hr incubation period in a 37° C., 5% CO2 incubator, an equal volume of methanol was added to the cultures. The cells were then scraped from the flasks and all of the media and the cells were pooled and lipid extraction was performed from both cells and media using the Bligh and Dyer technique. […] Zorbax-SIL column eluted with 6% isopropanol in hexane at a flow rate of 2 ml/min. […] Resulting lipid extracts were analyzed using the following HPLC conditions: Zorbax-SIL column eluted with 9% isopropanol in hexane at a flow rate of 2 ml/min. […] Lipid extracts of different time points were analyzed by straight phase HPLC. […] This metabolite peak appeared at 1 hr. incubation period and increased to its maximum by 3 hr.

[4] = biological target: T1, plasma vitamin D binding protein (DBP); settings: relative competitive index; RCI of 1α,25(OH)2D3 is by definition 100; cited from earlier work
[5] = test system: intestinal calcium transport; settings: relative to 1α,25(OH)2D3 = 100; cited from earlier work
[6] = test system: bone calcium mobilization; settings: relative to 1α,25(OH)2D3 = 100; cited from earlier work
MG-63 = settings: relative to 1α,25(OH)2D3 = 100; cited from earlier work
[7] = test system: intestinal calcium mobilization; settings: cited from earlier work
[8] = test system: rat osteosarcoma cell line UMR 106
Protocol: (§1) In order to address whether vitamin D3 analogs can be converted to 3-epi forms, a number of analogs were tested in bone cells under identical experimental conditions as described in Example IX.

Caco-2 cells = assay: Metabolism of synthetic analogs in Caco-2 cells (HPLC); assay type: in vitro ADME, human; settings: for metabolites detected in subconfluent cells: Caco-2, 6 days after seeding; for metabolites detected in subconfluent cells / metabolites detected in confluent cells: 1 μM, 48 hours; for metabolites detected in confluent cells: Caco-2, 14 days after seeding
Protocol: To address whether the epimerization of vitamin D3 analogs occurs in other tissues, the intestinal cell line Caco-2 was used as a model system to investigate the metabolism of two synthetic analogs of 1,25(OH)2D3 in intestinal epithelial cells. Subconfluent (6 days after seeding) and confluent (14 days after seeding) cells were incubated with 1 μM 1,25(OH)2-16-ene-D3 or 1,25(OH)2-16-ene-23-yne-D3, respectively, for 48 hours.

human leukemic cells = assay: Proliferation and differentiation of human leukemic cells; assay type: cell-based; settings: data not shown
keratinocytes [9] = settings: J. Invest. Dermatol. 101:713-718, 1993; cited from earlier work
HACAT cells = assay: Metabolism of 1α,25(OH)2D3 in immortalized human keratinocytes (HACAT); assay type: in vitro ADME; settings: 24 hr, 1uM 1α,25(OH)2D3
Description: Primary cultures of human keratinocytes were used as a control (FIG. 12, panel A). The other three tissues tested included a cell line of immortalized human keratinocytes ([…] commonly studied cancer cell line (human promyelocytic leukemic cell line, HL-60) (FIG. 12, panel C), and perfused rat kidney (FIG. 12, Panel D). […] The experiments certainly establish the fact that the 3-epimerization is not ubiquitous, like the side chain oxidation pathways.

bovine parathyroid cells [10] = assay: Metabolism in bovine parathyroid cells (HPLC); assay type: in vitro ADME; settings: 1 uM, 24 hours
Protocol: Bovine parathyroid glands obtained from a local slaughterhouse were digested with collagenase and the cells were cultured as previously described (Brown A. J. et al. (1992) Endocrinology 130:276-281), and seeded at a density of 80,000 cells/cm^2. Cells were grown to confluence in six days in serum free medium. […]. Incubations were terminated with methanol, and the samples were sent to our laboratory for HPLC analysis. The lipid extract was analyzed using the straight phase HPLC system (Zorbax-SIL column eluted with 6% isopropanol inhexane at 2 ml/min flow rate). […]

[11] = test system: human osteosarcoma cell (U-2 OS); assay: Metabolism of 1α,25(OH)2D3 in human osteosarcoma cell (U-2 OS); assay type: in vitro ADME; settings: 3×10^7 and 12×10^7 cells
Protocol: HPLC profiles were determined at two different cell densities, 3×10^7 cells and 12×10^7 as shown in the upper and lower panels of the Figure, respectively.

human placental explants = settings: 1 uM 1α,25(OH)2D3
[12] = test system: rat osteosarcoma cell line UMR 106; assay: Metabolism in rat osteosarcoma cell line UMR 106 (HPLC); settings: UMR 106, 1α,25(OH)2D3, 24 and 48 hours
Protocol: as §1

[13] = biological target: T2, vitamin D3 nuclear receptors (VD3R) (Rattus norvegicus, UniProt P13053); assay: Osteocalcin VDRE reporter gene transcription assay in transfected ROS-17/2.8 cells
T2 sequence (P13053 1-423): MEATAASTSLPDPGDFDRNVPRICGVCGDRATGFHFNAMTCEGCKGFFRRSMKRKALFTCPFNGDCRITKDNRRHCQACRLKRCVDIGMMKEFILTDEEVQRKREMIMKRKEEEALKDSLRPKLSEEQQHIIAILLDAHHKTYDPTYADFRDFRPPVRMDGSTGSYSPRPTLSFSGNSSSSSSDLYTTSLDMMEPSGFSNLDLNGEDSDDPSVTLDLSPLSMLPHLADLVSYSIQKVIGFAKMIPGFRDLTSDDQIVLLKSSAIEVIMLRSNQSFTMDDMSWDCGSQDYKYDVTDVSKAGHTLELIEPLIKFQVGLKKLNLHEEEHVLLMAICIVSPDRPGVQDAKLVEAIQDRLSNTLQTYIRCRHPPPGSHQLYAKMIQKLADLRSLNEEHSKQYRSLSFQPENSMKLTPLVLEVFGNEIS

C=C1C(=CC=C2CCCC3(C)C2CCC3C(C)CCCC(C)(C)O)CC(O)CC1O (stereo not drawn) [1α,25(OH)2-3-epi-D3, 3-epi-1α,25-dihydroxycholecalciferol]
increase in the binding to plasma vitamin D binding protein (DBP) compared to 1α,25(OH)2D3 [1]: eightfold | inhibition of keratinocyte growth (keratinocytes [2]): significant biological activity | inhibition of PTH secretion (bovine parathyroid cells [3]): significant biological activity | incubation time at which the tritiated metabolite reaches its maximum (human keratinocytes): 3 h | metabolism into more polar metabolites (human keratinocytes): extensive metabolism | Binding to DBP (RCI) [4]: 800 | Intestinal Calcium Transport [5]: 2.8 | Bone Calcium Mobilization [6]: 1.5 | Osteocalcin Synthesis MG-63 (MG-63): 17 | Transcaltachia ([7]; relative to 1α,25(OH)2D3): 80% | Transcaltachia ([7]; relative to 1α,25(OH)2D3 = 100): 80

C=C1/C(=C\C=C2/CCC[C@]3(C)C([C@@H](C)CCCC(C)(C)O)=CCC23)C[C@@H](O)C[C@@H]1O (stereo partly drawn) [1α,25(OH)2-16-ene-20-epi-D3]
conversion of vitamin D3 analog into less polar 3-epi metabolite [8]: 3-epi form

C=C1/C(=C\C=C2/CCC[C@]3(C)C([C@H](C)CC#CC(C)(C)O)=CC[C@@H]23)C[C@@H](O)C[C@@H]1O [1α,25(OH)2-16-ene-23-yne-D3]
metabolites detected in subconfluent cells (Caco-2 cells): no metabolites could be detected | metabolites detected in confluent cells (Caco-2 cells): 3-epi forms | rate of metabolism compared with 1,25(OH)2D3 or 1,25(OH)2-16-ene-D3 (Caco-2 cells; Caco-2, all growth conditions, data not shown): metabolized considerably slower | conversion of vitamin D3 analog into less polar 3-epi metabolite [8]: 3-epi forms

C=C1/C(=C\C=C2/CCC[C@]3(C)C([C@H](C)CCC(=O)C(C)(C)O)=CC[C@@H]23)C[C@@H](O)C[C@@H]1O [1α,25(OH)2-16-ene-24-oxo-D3]
potency at inhibiting growth of keratinocytes compared with 1α,25(OH)2-3-epi-D3 (keratinocytes [2]): more potent than 1α,25(OH)2-3-epi-D3 | inhibition of keratinocyte growth (keratinocytes [2]): equally potent | modulating proliferating and differentiation of human leukemic cells, compared with parent compound (human leukemic cells): equipotent effect as its parent compound | accumulation of metabolite relative to remaining unmetabolized substrate (human keratinocytes; human): exceeded the amounts of remaining unmetabolized substrate

C=C1/C(=C\C=C2/CCC[C@]3(C)C([C@H](C)CCCC(C)(C)O)=CCC23)C[C@@H](O)C[C@@H]1O (stereo partly drawn) [1α,25(OH)2-16-ene-D3]
potency at inhibiting growth of keratinocytes compared with 1α,25(OH)2-3-epi-D3 (keratinocytes [2]): more potent than 1α,25(OH)2-3-epi-D3 | inhibition of keratinocyte growth (keratinocytes [2]): equally potent | metabolites detected in subconfluent cells (Caco-2 cells): 1,24,25(OH)3-16-ene-D3 and 1,25 (OH)2-24-oxo-16-ene-D3 | metabolites detected in confluent cells (Caco-2 cells): 3-epi form of 1,25(OH)2-16-ene-D3 | inhibiting proliferation and inducing differentiation of keratinocytes (keratinocytes [9]): most potent of the analogs tested

C=C1C(=CC=C2CCCC3(C)C2CCC3C(C)CCCC(C)(C)O)CC(O)CC1O (stereo not drawn) [1α,25(OH)2-20-epi-D3]
conversion of vitamin D3 analog into less polar 3-epi metabolite [8]: 3-epi form

C=C1/C(=C\C=C2/CCC[C@@]3(C)C2CCC3C(C)CCCC(C)(C)O)CC(O)C[C@@H]1O (stereo partly drawn) [1α,25(OH)2D3]
incubation time at which the tritiated metabolite reaches its maximum (human keratinocytes; human keratinocytes from adult breast skin incubated with tritiated 25(OH)D3, physiological substrate concentration): 1 to 2 h | formation of 1α,25(OH)2-3-epi-D3 (peak M) (human keratinocytes; primary human keratinocytes, 24 hr, 1uM 1α,25(OH)2D3): is formed in keratinocytes and the HACAT cells | formation of 1α,25(OH)2-3-epi-D3 (peak M) (HACAT cells): is formed in keratinocytes and the HACAT cells | conversion into 1α,25(OH)2-3-epi-D3 (bovine parathyroid cells [10]): have the ability to convert | conversion into 3-epi form [11]: directly proportional to the concentration of cells | Intestinal Calcium Transport [5]: 100 | Bone Calcium Mobilization [6]: 100 | Osteocalcin Synthesis MG-63 (MG-63): 100 | Transcaltachia ([7]; relative to 1α,25(OH)2D3 = 100): 100 | epimerization of the 3-hydroxy group (human placental explants): unable to epimerize | formation of 1α,25(OH)2-3-epi-D3 [12]: dose dependent

C=C1C(=CC=C2CCCC3(C)C(C(C)CC#CC(C)(C)O)=CCC23)CC(O)CC1O (stereo not drawn) [3-epi-1,25-dihydroxy-16-ene-25-yne-cholecalciferol]
transcriptional activation in relation to isomeric counterpart [13]: slightly decreased | transcriptional activity compared with 1α,25(OH)2D3 [13]: as active as 1α,25(OH)2D3 | induction of VD3R transcriptional activity ([13]; osteocalcin VDRE reporter): dose dependent manner
